How the values were obtained:
HBs [1] = assay: Effects of signaling pathways regulated by small molecules on proliferation of HBs; format: cell-based, human; settings: small molecule regulating a signaling pathway; FIGS. 2B and 2C
Protocol: Further, effects of the signaling pathways on the proliferation and differentiation of HBs were analyzed by regulating the related signaling pathways with small molecules.

HBs [2] = assay: Effects of signaling pathways regulated by small molecules on characteristics of HBs (AFP expression); format: cell-based, human; settings: FIG. 2D
Description: In addition to proliferation, the effects of the related signaling pathways on the characteristics of HBs were further analyzed.

SMILES	proliferation of HBs (HBs [1])	expression of AFP / maintenance of the characteristics of HBs (HBs [2])
Cc1cccc(-c2nn(C(=S)Nc3ccccc3)cc2-c2ccnc3ccccc23)n1 [A8301]	promoted the proliferation of HBs	promoted the expression of liver cell-related genes such as AFP
CNC1CCC(N(Cc2cccc(-c3ccncc3)c2)C(=O)c2sc3ccccc3c2Cl)CC1 (stereo not drawn) [SAG]	promoted the proliferation of HBs	promoted the expression of liver cell-related genes such as AFP
Cc1c[nH]c(-c2cnc(NCCNc3ccc(C#N)cn3)nc2-c2ccc(Cl)cc2Cl)n1 [CHIR, CHIR99021]	promoted the proliferation of HBs	inhibited the expression of AFP
